Results reported in PMC8066331, “Anticancer Activity of Triazolo-Thiadiazole Derivatives and Inhibition of AKT1 and AKT2 Activation” (Pharmaceutics, 2021).

Tests used:
SKOV-3 = assay: MTT in vitro antiproliferative assay, SKOV-3; assay type: cell-based; conditions: Homo sapiens, SK-OV-3, 48 h
Source text: (§1) The in vitro antiproliferative activities of the novel triazolo[3,4-b]thiadiazole derivatives were estimated in ten well-established human cancer cell lines including three ovarian (SKOV-3, UWB 1.289, and UWB 1.289+BRCA1), five colorectal adenocarcinoma (DLD-1, HT-29, LS174T, LoVo, and SW403), and two prostate cancer cell lines (PC-3 and DU-145). All cancer cell lines were obtained from the American Type Culture Collection (ATCC) and cultivated in different culture media according to the instructions. The required growth mediums were supplemented with 10% fetal bovine serum and 1% streptomycin/penicillin. All cancer cell lines were cultured as monolayers and maintained at 37 °C, 5% CO2 in humidified air.
(§2) Stock solutions of all tested compounds were prepared by dissolving the required amount of substances in the DMSO solvent to reach the desired concentration of 15 mM.
(§3) To evaluate the in vitro antiproliferative activity of the triazolo[3,4-b]thiadiazole derivatives, 3-(4,5-dimethylthiazol-2-yl)-2,5-diphenyltetrazolium bromide (MTT) assay was assessed. According to the protocol, cells were firstly seeded into a 96-well plate at a density of 8 × 10^3 cells and grown for 24 h at 37 °C, 5% CO2 in humidified air. Subsequently, cells were treated with the tested compounds in a specific range of drug concentrations (1–100 μΜ). Following 48 h of drug exposure, the culture media were discarded and replaced with 100 μL of fresh medium. Afterwards, 50 μL of dissolved MTT in phosphate-buffered saline (PBS) solution (5 mg/mL) were added in each well and cells were incubated for 3 h at 37 °C, 5% CO2 in humidified air. Incubation time was followed by MTT discard and the addition of 100 μL of DMSO solvent so that the formazan crystals could be dissolved. The absorbance of the converted dye was immediately measured at a wavelength of 540 nm on an ELISA reader (VersaMax Microplate Reader, Orleans, CA, USA).
(§4) The in vitro anticancer effect of a tested compound on cell viability was determined by three dose–response parameters termed GI50, TGI, and IC50. More specifically, the GI50 value indicates the required concentration of the compound that impels 50% cell growth inhibition, the TGI value corresponds to the concentration that induces 100% cell growth inhibition, and the IC50 value is the concentration that causes 50% cell death. The two parameters GI50 and TGI represent the cytostatic activity, whereas IC50 reflects the cytotoxic effect of a drug. To estimate the three parameters, nine absorbance measurements were required including control 24 h (Ct24), control 72 h (Ct72), and the mean of cell survival in all seven drug concentrations (Tt72). The percentage growth inhibition was calculated according to National Cancer Institute’s (NCI) protocol: [(Tt72x) − (Ct24)/(Ct72) − (Ct24)] × 100 for concentrations for which Tt72x > Ct24 and [(Tt72x) − (Ct24)/Ct24] × 100 for concentrations for which Tt72x < Ct24. GI50 was calculated from [(Tt72x) − (Ct24)/(Ct72) − (Ct24)] × 100 = 50, TGI was calculated from [(Tt72x) − (Ct24)/(Ct72) − (Ct24)] × 100 = 0, and IC50 was calculated from [(Tt72x) − (Ct24)/Ct24] × 100 = 50. All the experiments were carried out in triplicate.

HT-29 = assay: MTT in vitro antiproliferative assay, HT-29; assay type: cell-based, human
Source text: as §1, §2, §3, §4

PC-3 = assay: MTT in vitro antiproliferative assay, PC-3; assay type: cell-based; conditions: Homo sapiens, PC-3, 48 h
Source text: as §1, §2, §3, §4

DU-145 = assay: MTT in vitro antiproliferative assay, DU-145; assay type: cell-based, human
Source text: as §1, §2, §3, §4

DLD-1 = assay: MTT in vitro antiproliferative assay, DLD-1; assay type: cell-based, human; conditions: DLD-1, MTT
Source text: as §1, §2, §3, §4

COc1cc(Cc2nnc3sc(-c4cc([N+](=O)[O-])ccc4[N+](=O)[O-])nn23)c(S(=O)(=O)N(C(C)C)C(C)C)cc1OC [Compound 7d, 2-((6-(2,5-dinitrophenyl)-[1,2,4]triazolo[3,4-b][1,3,4]thiadiazol-3-yl)methyl)-N,N-diisopropyl-4,5-dimethoxybenzenesulfonamide] was tested. Which GI50 (SKOV-3) did it give?
The GI50 was 13 ± 0.5 µM.

What about the IC50 (SKOV-3) of the same molecule?
The IC50 was 23 ± 1.4 µM.

And the IC (TGI) (SKOV-3; read-out: TGI)?
The IC (TGI) was 17 ± 1 µM.

What about the TGI (HT-29; HT-29, MTT, 48 h drug exposure) of the same molecule?
Its TGI is 26 ± 1.52 μΜ.

What about the GI50 (HT-29; Homo sapiens, HT-29, 48 h) of the same molecule?
The GI50 was 17.9 ± 2.51 µM.

What about the IC50 (HT-29; Homo sapiens, HT-29, 48 h) of the same molecule?
Its IC50 is 40 ± 1 µM.

What about the GI50 (PC-3) of the same molecule?
The GI50 was 8 ± 1 µM.

What about the IC50 (PC-3) of the same molecule?
Its IC50 is 22 ± 0.3 µM.

What about the IC (TGI) (PC-3; read-out: TGI) of the same molecule?
Its IC (TGI) is 11 ± 1.04 µM.

And the TGI (DU-145; DU-145, MTT, 48 h drug exposure)?
The TGI was 14 ± 0.5 μΜ.

And the GI50 (DU-145; Homo sapiens, DU-145, 48 h)?
The GI50 was 6.8 ± 0.8 µM.

What about the IC50 (DU-145; Homo sapiens, DU-145, 48 h) of the same molecule?
The IC50 was 21.3 ± 0.9 µM.

What about the TGI (DLD-1; 48 h drug exposure) of the same molecule?
The TGI was 12 ± 0.5 μΜ.

And the IC50 (DLD-1; Homo sapiens, 48 h, 50% cell death)?
Its IC50 is 22 ± 1 µM.

What about the GI50 (DLD-1; Homo sapiens, 48 h drug exposure) of the same molecule?
The GI50 was 7.3 ± 0.75 µM.
